Laboratory results from US8192962B2, “Processes for detecting toxic substances” (Daikin Industries, Ltd., priority 2001, dated 2012).

Test system: Transport facilitation protein genes
Experiment: DNA chip mRNA expression in yeast, transport facilitation protein genes (Table 5)
Format: cell-based, Saccharomyces cerevisiae S288C
Description: Yeast (Saccharomyces cerevisiae S288C (α SUC2mal mel gap2 CUP1)) were incubated at 25° C. on YPD medium (yeast extract 1%, polypepton 2%, glucose 2%). One of toxic chemical substances was added to the cells at logarithmic growth phase, and the cells were further incubated for two hours. Cells were cultured without any chemical substance in the same condition, and were used as control. Concentrations of the chemical substances were defined to inhibit the growth of the yeast but not lead to death.
After completion of the incubation, the culture was centrifuged to collect the cells. To the cells, sodium acetate buffer (50 mM sodium acetate, 10 mM EDTA, 1% SDS) was added, and the mixture was shaken at 65° C. for five minutes, followed by returning to room temperature, and obtaining the supernatant, of which the procedures were repeated two times. To the supernatant, ½ amount of a solution of phenol/chloroform was added, and the mixture was centrifuged to give a supernatant, which was added with an equal amount of chloroform, and the mixture was centrifuged to give a supernatant. To the supernatant, an equal amount of isopropanol containing 0.3 M sodium acetate was added, and the mixture was allowed to stand at room temperature for 30 minutes, after which the mixture was centrifuged to give a sediment of the whole RNAs. Seventy % ethanol was added to the sediment, and the mixture was again centrifuged to give a sediment, which was then dried and dissolved in water. mRNA was isolated from the whole RNAs as followings. In view of the fact that a poly A chain is attached to the 3′ terminus of mRNA, a polynucleotide having a poly T structure which was immobilized on the surface of latex beads was used to trap the mRNA, and then the mRNA was washed and eluted with spine column (Oligotex-dT30<Super>mRNA Purification Kit, Takara). Reverse transcription of the mRNA was conducted with a reverse transcriptase (Super Script II Reverse Transcriptase; catalogue No. 18064-014, GibcoBRL) using fluorescence-labeled nucleotides to give cDNAs that were introduced with Cy3-dUTP or Cy5-dUTP during the reverse transcription.
The labeled cDNAs were dissolved in TE buffer (10mM Tris-HCl/1 mM EDTA, pH8.0), and the solution was dropped on the DNA chip containing the whole genes of yeast (DNA Chip Research Inc. Japan) so that the cDNAs were hybridized on the DNA chip at 65° C. for over 12 hours. The fluoresces intensity of the DNA chip was read with a scanner, and the ratio relative to the fluorescence intensity resulting from the absence of chemical substance was estimated as the following, which is shown in Tables 1 to 9: […]

Question: Which “The level of expressed mRNA in the presence of chemical substance/The level of expressed mRNA in the absence of chemical substance” value (yeast gene YBL030C) does the source give for [Cl][Cd][Cl] [(2), CdCl2] here?
Answer: The value was 0.9.

Question: What about the “The level of expressed mRNA in the presence of chemical substance/The level of expressed mRNA in the absence of chemical substance” value (yeast gene YBL099W) of the same compound?
Answer: Its value is 0.9.

Question: What about the “The level of expressed mRNA in the presence of chemical substance/The level of expressed mRNA in the absence of chemical substance” value (yeast gene YBR052C) of the same compound?
Answer: The value was 1.6.

Question: And the “The level of expressed mRNA in the presence of chemical substance/The level of expressed mRNA in the absence of chemical substance” value (yeast gene YBR068C)?
Answer: Its value is 1.0.

Question: And the “The level of expressed mRNA in the presence of chemical substance/The level of expressed mRNA in the absence of chemical substance” value (yeast gene YBR127C)?
Answer: The value was 0.7.

Question: And the “The level of expressed mRNA in the presence of chemical substance/The level of expressed mRNA in the absence of chemical substance” value (yeast gene YBR132C)?
Answer: The value was 1.9.

Question: What about the “The level of expressed mRNA in the presence of chemical substance/The level of expressed mRNA in the absence of chemical substance” value (yeast gene YBR207W) of the same compound?
Answer: The value was 1.7.

Question: And the “The level of expressed mRNA in the presence of chemical substance/The level of expressed mRNA in the absence of chemical substance” value (yeast gene YBR293W)?
Answer: The value was 3.1.

Question: What about the “The level of expressed mRNA in the presence of chemical substance/The level of expressed mRNA in the absence of chemical substance” value (yeast gene YBR294W) of the same compound?
Answer: The value was 14.4.

Question: What about the “The level of expressed mRNA in the presence of chemical substance/The level of expressed mRNA in the absence of chemical substance” value (yeast gene YBR295W) of the same compound?
Answer: Its value is 1.5.

Question: What about the “The level of expressed mRNA in the presence of chemical substance/The level of expressed mRNA in the absence of chemical substance” value (yeast gene YBR298C) of the same compound?
Answer: Its value is 1.0.

Question: What about the “The level of expressed mRNA in the presence of chemical substance/The level of expressed mRNA in the absence of chemical substance” value (yeast gene YCL025C) of the same compound?
Answer: Its value is 4.6.

Question: And the “The level of expressed mRNA in the presence of chemical substance/The level of expressed mRNA in the absence of chemical substance” value (yeast gene YCL038C)?
Answer: The value was 1.6.

Question: What about the “The level of expressed mRNA in the presence of chemical substance/The level of expressed mRNA in the absence of chemical substance” value (yeast gene YCR024C-A) of the same compound?
Answer: The value was 0.9.

Question: And the “The level of expressed mRNA in the presence of chemical substance/The level of expressed mRNA in the absence of chemical substance” value (yeast gene YCR037C)?
Answer: Its value is 1.0.

Question: And the “The level of expressed mRNA in the presence of chemical substance/The level of expressed mRNA in the absence of chemical substance” value (yeast gene YCR098C)?
Answer: Its value is 3.0.

Question: And the “The level of expressed mRNA in the presence of chemical substance/The level of expressed mRNA in the absence of chemical substance” value (yeast gene YDL128W)?
Answer: Its value is 1.1.

Question: And the “The level of expressed mRNA in the presence of chemical substance/The level of expressed mRNA in the absence of chemical substance” value (yeast gene YDL198C)?
Answer: Its value is 1.0.

Question: And the “The level of expressed mRNA in the presence of chemical substance/The level of expressed mRNA in the absence of chemical substance” value (yeast gene YDL210W)?
Answer: The value was 2.2.

Question: And the “The level of expressed mRNA in the presence of chemical substance/The level of expressed mRNA in the absence of chemical substance” value (yeast gene YDL245C)?
Answer: Its value is 2.4.

Question: What about the “The level of expressed mRNA in the presence of chemical substance/The level of expressed mRNA in the absence of chemical substance” value (yeast gene YDR038C) of the same compound?
Answer: The value was 1.3.

Question: What about the “The level of expressed mRNA in the presence of chemical substance/The level of expressed mRNA in the absence of chemical substance” value (yeast gene YDR039C) of the same compound?
Answer: Its value is 1.6.

Question: And the “The level of expressed mRNA in the presence of chemical substance/The level of expressed mRNA in the absence of chemical substance” value (yeast gene YDR086C)?
Answer: Its value is 1.0.

Question: What about the “The level of expressed mRNA in the presence of chemical substance/The level of expressed mRNA in the absence of chemical substance” value (yeast gene YDR270W) of the same compound?
Answer: Its value is 1.5.

Question: What about the “The level of expressed mRNA in the presence of chemical substance/The level of expressed mRNA in the absence of chemical substance” value (yeast gene YDR298C) of the same compound?
Answer: Its value is 1.2.

Question: And the “The level of expressed mRNA in the presence of chemical substance/The level of expressed mRNA in the absence of chemical substance” value (yeast gene YDR342C)?
Answer: Its value is 1.1.

Question: And the “The level of expressed mRNA in the presence of chemical substance/The level of expressed mRNA in the absence of chemical substance” value (yeast gene YDR343C)?
Answer: The value was 1.0.

Question: And the “The level of expressed mRNA in the presence of chemical substance/The level of expressed mRNA in the absence of chemical substance” value (yeast gene YDR345C)?
Answer: Its value is 0.9.

Question: And the “The level of expressed mRNA in the presence of chemical substance/The level of expressed mRNA in the absence of chemical substance” value (yeast gene YDR387C)?
Answer: The value was 0.9.

Question: What about the “The level of expressed mRNA in the presence of chemical substance/The level of expressed mRNA in the absence of chemical substance” value (yeast gene YDR497C) of the same compound?
Answer: Its value is 0.5.

Question: What about the “The level of expressed mRNA in the presence of chemical substance/The level of expressed mRNA in the absence of chemical substance” value (yeast gene YEL027W) of the same compound?
Answer: The value was 0.6.

Question: What about the “The level of expressed mRNA in the presence of chemical substance/The level of expressed mRNA in the absence of chemical substance” value (yeast gene YEL063C) of the same compound?
Answer: Its value is 0.8.

Question: And the “The level of expressed mRNA in the presence of chemical substance/The level of expressed mRNA in the absence of chemical substance” value (yeast gene YEL065W)?
Answer: The value was 3.8.

Question: What about the “The level of expressed mRNA in the presence of chemical substance/The level of expressed mRNA in the absence of chemical substance” value (yeast gene YER053C) of the same compound?
Answer: Its value is 1.8.

Question: And the “The level of expressed mRNA in the presence of chemical substance/The level of expressed mRNA in the absence of chemical substance” value (yeast gene YFL011W)?
Answer: Its value is 0.7.

Question: And the “The level of expressed mRNA in the presence of chemical substance/The level of expressed mRNA in the absence of chemical substance” value (yeast gene YFL041W)?
Answer: Its value is 1.6.

Question: What about the “The level of expressed mRNA in the presence of chemical substance/The level of expressed mRNA in the absence of chemical substance” value (yeast gene YFL050C) of the same compound?
Answer: Its value is 1.0.

Question: What about the “The level of expressed mRNA in the presence of chemical substance/The level of expressed mRNA in the absence of chemical substance” value (yeast gene YFL054C) of the same compound?
Answer: The value was 1.1.

Question: What about the “The level of expressed mRNA in the presence of chemical substance/The level of expressed mRNA in the absence of chemical substance” value (yeast gene YGL006W) of the same compound?
Answer: Its value is 1.3.

Question: What about the “The level of expressed mRNA in the presence of chemical substance/The level of expressed mRNA in the absence of chemical substance” value (yeast gene YGL008C) of the same compound?
Answer: Its value is 0.7.

Question: And the “The level of expressed mRNA in the presence of chemical substance/The level of expressed mRNA in the absence of chemical substance” value (yeast gene YGL104C)?
Answer: The value was 2.0.

Question: And the “The level of expressed mRNA in the presence of chemical substance/The level of expressed mRNA in the absence of chemical substance” value (yeast gene YGL167C)?
Answer: The value was 0.7.

Question: And the “The level of expressed mRNA in the presence of chemical substance/The level of expressed mRNA in the absence of chemical substance” value (yeast gene YGL255W)?
Answer: Its value is 0.9.

Question: And the “The level of expressed mRNA in the presence of chemical substance/The level of expressed mRNA in the absence of chemical substance” value (yeast gene YGR055W)?
Answer: The value was 5.7.

Question: What about the “The level of expressed mRNA in the presence of chemical substance/The level of expressed mRNA in the absence of chemical substance” value (yeast gene YGR065C) of the same compound?
Answer: Its value is 1.5.

Question: What about the “The level of expressed mRNA in the presence of chemical substance/The level of expressed mRNA in the absence of chemical substance” value (yeast gene YGR082W) of the same compound?
Answer: The value was 0.9.

Question: And the “The level of expressed mRNA in the presence of chemical substance/The level of expressed mRNA in the absence of chemical substance” value (yeast gene YGR096W)?
Answer: The value was 1.0.

Question: And the “The level of expressed mRNA in the presence of chemical substance/The level of expressed mRNA in the absence of chemical substance” value (yeast gene YGR138C)?
Answer: Its value is 1.6.

Question: And the “The level of expressed mRNA in the presence of chemical substance/The level of expressed mRNA in the absence of chemical substance” value (yeast gene YGR191W)?
Answer: Its value is 0.7.

Question: What about the “The level of expressed mRNA in the presence of chemical substance/The level of expressed mRNA in the absence of chemical substance” value (yeast gene YGR197C) of the same compound?
Answer: The value was 2.4.
